Marks after values point to notes of the source that are not given here. Peptide text beside a SMILES is read from it. * marks the point of attachment. X55 = O=C1C=CC(=O)N1c1ccccc1CCCCCCCCC(=O)*
Assays:
[1] = tested on: choroidal neovascularization; assay: Choroidal neovascularization in rats (laser photocoagulation, FFA); assay type: in vivo; conditions: BN rats
Method: 6-8 weeks male BN rats were fully anesthetized by intraperitoneal injection of 846 compound anesthetic with a concentration of 0.5 mL/kg. Compound tropicamide eye drops were used once 5 min before laser photocoagulation to fully dilate the pupils of both eyes. The animals were fixed and subjected to krypton laser photocoagulation equidistantly around an optic disc with the aid of a −53.00D corneal contact lens at a distance of 2PD from the optic disc. A total of 8 photocoagulation spots were obtained. The laser wavelength was 647.1 nm, the power was 350 mW, and the diameter and time of the photocoagulation spots were 50 μm and 0.05 s respectively. Fundus photography was performed immediately after photocoagulation. FFA, histopathology and transmission electron microscopy were performed on the days 3, 7, 14, 21 and 28 after photocoagulation respectively.
Through fundus photography and FFA examination, it was confirmed that the fluorescein leakage of the photocoagulation spot reached its peak on day 21 after photocoagulation. At the same time, histopathological examination was carried out.
Rats with successful modeling were randomly grouped, with 5 rats in each group. The groups were marked as a negative control group and X1-X90 treatment groups respectively. The rats were injected with normal saline and X1-X90 (the doses of X1-X90 were each 0.05 μM) in the vitreous chamber once a day for 1 week. FFA examination was carried out 3 days, 7 days, 14 days and 28 days after administration.

[2] = tested on: HUVECs; assay: Transwell migration inhibition on HUVECs; assay type: cell-based, human; conditions: for Inhibition rate (%): HUVEC migration vs blank control; for Cell migration number (Mean ± SD): HUVECs, transwell, 24 h
[3] = tested on: corneal neovascularization; assay: Corneal neovascularization induced by alkali burn in BALB/c mice; assay type: in vivo; design: Inhibition rate (corneal neovascularization): concentration or dose not given beside the values; conditions: day 14 after alkali burn, vitreous injection once a day for 1 week
[4] = tested on: carrageenan-induced toe swelling; assay: Carrageenan-induced toe swelling in rats; assay type: in vivo; conditions: SD rats; for Swelling degree 1 h: 1 h after carrageenan; for Swelling degree 3 h: 3 h after carrageenan; for Swelling degree 5 h: 5 h after carrageenan; for Swelling degree 7 h: 7 h after carrageenan
Outline: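 Paw swelling, in mL, is the post-inflammation minus pre-inflammation volume of the right hind foot, read as overflow liquid when immersed to a pen-marked joint. Treatment was daily injection over 3 d; model group received saline of the same volume.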

[5] = Half-lives and pharmacokinetic parameters of polypeptides vs HM-1; conditions: in vivo
[6] = tested on: human retinal capillary endothelial cells (HRCECs); assay: MTT proliferation inhibition on HRCECs; assay type: cell-based; conditions: 48 h; for A570 nm-A630 nm: mean±SD
Outline: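 HRCECs seeded at 3.0×10^4 cells/mL, adhered overnight, then exposed to polypeptide for 48 h at 37 °C, 5% CO2. MTT added 4 h, formazan dissolved in DMSO, absorbance 570/630 nm; PIR (%) = 1 − treated/negative control, mean±SD of three independent runs.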

[7] = tested on: collagen-induced arthritis; assay: Mouse collagen-induced arthritis (CIA) animal model; assay type: in vivo; conditions: DBA/1 mice CIA model, dose 4.0 mg/kg, subcutaneous from day 30, n=10
[8] = tested on: xylene-induced ear swelling; assay: Xylene-induced mouse ear swelling; assay type: in vivo; conditions: Kunming mice, injected once a day for 5 days; for Inhibition rate (%): xylene-induced ear swelling
Outline: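 Ear pieces punched and weighed 2 h after xylene (0.05 mL, right ear only; left ear as normal) gave swelling degree (right − left weight) and swelling rate (degree/left weight ×100%). Kunming mice received injections daily for 5 consecutive days, xylene applied 1 h after final dose.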

[9] = day 3 after administration, total light spot number was 297, 0.05 μM in the vitreous chamber once a day for 1 week
[10] = day 7 after administration, total light spot number was 186, 0.05 μM in the vitreous chamber once a day for 1 week
[11] = day 14 after administration, total light spot number was 137, 0.05 μM in the vitreous chamber once a day for 1 week
[12] = day 28 after administration, total light spot number was 69, 0.05 μM in the vitreous chamber once a day for 1 week

For `C[C@H](NC(=O)CNC(=O)[C@H](CCCNC(=N)N)NC(=O)CCCCCCCCc1ccccc1N1C(=O)C=CC1=O)C(=O)N[C@@H](CC(=O)O)C(=O)N[C@@H](CCCNC(=N)N)C(=O)N[C@@H](C)C(=O)NCC(=O)NCC(=O)NCC(=O)NCC(=O)N[C@@H](CCCNC(=N)N)C(=O)NCC(=O)N[C@@H](CC(=O)O)C(=O)O` [X20] (X55-RGADRAGGGGRGD-OH), the “CNV Incidence (%)” value [1, 9] was 52.53%, the “Leakage Light spot number” value [1, 9] was 156 and the “CNV Incidence (%)” value [1, 10] was 48.92%. For the same compound, the “Leakage Light spot number” value [1, 10] was 91, the “CNV Incidence (%)” value [1, 11] was 42.34% and the “Leakage Light spot number” value [1, 11] was 58. The “CNV Incidence (%)” value [1, 12] was 39.13%, the “Leakage Light spot number” value [1, 12] was 27 and the “Inhibition rate (%)” value ([2]; dose 0.05 μM) was 47.45%. The “Inhibition rate (%)” value ([2]; dose 0.1 μM) was 49.79%, the “Inhibition rate (%)” value ([2]; dose 0.2 μM) was 52.70% and the “Cell migration number (Mean ± SD)” value ([2]; dose 0.05 μM) was 563.29 ± 41.22. For the same compound, the “Cell migration number (Mean ± SD)” value ([2]; dose 0.1 μM) was 538.18 ± 64.13, the “Cell migration number (Mean ± SD)” value ([2]; dose 0.2 μM) was 506.96 ± 57.65 and the “Inhibition rate (corneal neovascularization)” value [3] was 44.62%. The “MVD (corneal microvessel density)” value [3] was 37.24 ± 6.113, the “Swelling degree 1 h” value ([4]; 2.0 mg/kg once a day for 3 d) was 0.25 ± 0.18 mg and the “Swelling degree 3 h” value ([4]; 2.0 mg/kg once a day for 3 d) was 0.34 ± 0.13 mg. The “Swelling degree 5 h” value ([4]; 2.0 mg/kg once a day for 3 d) was 0.36 ± 0.13 mg, the “Swelling degree 7 h” value ([4]; 2.0 mg/kg once a day for 3 d) was 0.37 ± 0.12 mg and the “Swelling degree 1 h” value ([4]; 4.0 mg/kg once a day for 3 d) was 0.24 ± 0.15 mg. For the same compound, the “Swelling degree 3 h” value ([4]; 4.0 mg/kg once a day for 3 d) was 0.34 ± 0.12 mg, the “Swelling degree 5 h” value ([4]; 4.0 mg/kg once a day for 3 d) was 0.35 ± 0.16 mg and the “Swelling degree 7 h” value ([4]; 4.0 mg/kg once a day for 3 d) was 0.35 ± 0.12 mg. For the same compound, the AUC(0-inf) [5] was 31800 ± 8320 ng·h/mL, the MRT inf [5] was 57.1 ± 12.9 h and the clearance [5] was 0.523 mL/min/kg. For the same compound, the half-life ([5]; T1/2β (half-life)) was 39.56 ± 0.28 h, the “Inhibition rate (%)” value ([6]; dose 0.05 μM) was 44.28%* and the “A570 nm-A630 nm” value ([6]; dose 0.05 μM) was 0.7365 ± 0.05032. The “Inhibition rate (%)” value ([6]; dose 0.1 μM) was 46.12%**, the “A570 nm-A630 nm” value ([6]; dose 0.1 μM) was 0.7121 ± 0.0349 and the “Inhibition rate (%)” value ([6]; dose 0.2 μM) was 60.14%*. For the same compound, the “A570 nm-A630 nm” value ([6]; dose 0.2 μM) was 0.5268 ± 0.01299, the “Joint swelling degree (mm)” value [7] was 0.82 ± 0.17 mm and the “Left and right paw swelling degree (mm)” value [7] was 0.74 ± 0.14 mm. The Clinical score ([7]; highest score 16) was 9.07 ± 1.33, the “Swelling degree” value ([8]; dose 2 mg/kg, right minus left ear piece weight 2 h after xylene) was 5.72 ± 0.01 mg and the “Inhibition rate (%)” value ([8]; dose 2 mg/kg) was 8.19%. For the same compound, the “Swelling degree (mg)” value ([8]; dose 4 mg/kg, right minus left ear piece weight 2 h after xylene) was 3.78 ± 0.88** mg, the “Inhibition rate (%)” value ([8]; dose 4 mg/kg) was 39.33% and the “Swelling degree (mg)” value ([8]; dose 8 mg/kg, right minus left ear piece weight 2 h after xylene) was 3.47 ± 0.07** mg. The “Inhibition rate (%)” value ([8]; dose 8 mg/kg) was 44.30%.

Source: patent publication US20200270309A1, “MALEIMIDE GROUP-MODIFIED ANGIOGENESIS INHIBITOR HM-1 AND USE THEREOF” (NANJING ANJI BIOLOGICAL TECHNOLOGY CO., LTD, priority 2017, published 2020)
